Assay results published in patent US20090028925A1, “Novel Phosphinic Acid-Containing Thyromimetics” (priority 2005, published 2009).

Legend:
human hepatoma cells = details: via thyroid hormone receptor activation; cited from earlier work
heart mGPDH activity = assay: Subacute study in normal rats, continuous infusion: heart mGPDH activity; format: in vivo, rats (Sprague-Dawley); details: continuous infusion 1 mg/kg/day
From the text: (§1) Efficacy endpoints include serum cholesterol, liver mitochondrial glycerol phosphate dehydrogenase (mGPDH) activity and the expression of relevant liver genes (e.g., the LDL-receptor, apoB, cpt-1, spot14 and apoAI). Safety parameters include heart weight, heart rate, heart mGPDH activity, the expression and key genes involved in cardiac structure and function (e.g., Serca2, HCN2, Kv1.5, MHCα, MHCβ, Alpha1c), and standard plasma chemistry analysis (liver enzymes, electrolytes, creatinine). Endocrine effects are monitored by analysis of serum thyroid stimulating hormone (TSH). [Taylor et al., Mol Pharmacol 52(3): 542-7 (1997); Weitzel et al., Eur J Biochem 268(14):4095-4103 (2001)]
(§2) Methods: mGPDH activity was analyzed in isolated mitochondria using 2-(4-iodophenyl)-3-(4-nitrophenyl)-5-phenyl tetrazolium chloride as the terminal electron acceptor (Gardner R S, Analytical Biochemistry 59:272 (1974)). Commercially available GPDH was used in each assay as a standard (Sigma, St. Louis, Mo.). Changes in levels of mRNA for liver and heart genes are analyzed using reverse transcriptase followed by real-time PCR analysis. The analysis is performed using an iCycler instrument (Biorad) and appropriate primers by means of standard methodology [e.g., Schwab D A et al. (2000) Life Sciences 66: 1683-94]. The amounts of mRNA are normalized to an internal control, typically, cyclophilin. Serum TSH is measured using an enzyme immunoassay (EIA) kit designed for rat TSH (Amersham Pharmacia Biotech, Arlington Heights, Ill.).
(§3) Normal rats (Sprague-Dawley) were maintained on a standard diet. […] The compounds were brought up to an appropriate volume using PBS and BSA to maintain solubility within the pump. The compounds were chemically stable in the excipient at 37° C. for 7 days.
(§4) Values are expressed as percent of control. (Table 4)

serum cholesterol = assay: Subacute study in cholesterol-fed rats, IP: serum cholesterol; format: in vivo; details: IP once-a-day for seven days
[1] = test system: liver mitochondrial glycerol phosphate dehydrogenase (mGPDH) activity; assay: Subacute study in normal rats, continuous infusion: liver mGPDH activity; format: in vivo, rats (Sprague-Dawley); details: continuous infusion 1 mg/kg/day
From the text: as §1, §2, §3, §4

[2] = Tissue distribution and pharmacokinetics following IP administration to normal rats; format: in vivo, SD rats; details: 10 mg/kg IP
From the text: At pre-selected time points following dosing, the rats were anesthetized using iso-fluorane and the peritoneal cavity was then opened and a blood sample was obtained from the abdominal vena cava. In addition, liver, kidney, and heart were excised and immersed in 3 volumes of cold 60% acetonitrile. The blood samples were briefly centrifuged and the plasma fraction was then extracted with 1.5 volumes of methanol, processed, and analyzed by LC-UV as described in Example G. The frozen liver, kidney, and heart tissue were homogenized in 60% v/v acetonitrile, centrifuged, and then analyzed by LC-UV. Pharmacokinetic parameters and AUC of the plasma and tissue concentration-time profiles were determined noncompartmentally by WinNonLin.

[3] = Subacute study in normal rats, continuous infusion: heart weight; format: in vivo, rats (Sprague-Dawley); details: continuous infusion 1 mg/kg/day
From the text: as §1, §3, §4

[4] = Continuous infusion study in rats on a cholesterol-containing diet; format: in vivo; details: continuous infusion 1 mg/kg/day
Method: Screening for thyromimetic activity was performed in normal rats maintained on a cholesterol-containing diet. Compounds were administered by continuous infusion using an osmotic pump at 1 mg/kg/day.

[5] = Subacute study in cholesterol-fed rats, IP: heart weight and heart mGPDH activity
Method: The cholesterol-fed rat is an animal model of hypercholesterolemia generated by feeding the animals a diet with high cholesterol content.
Serum cholesterol values were assessed and the animals randomized into groups for treatment.

liver triglycerides = assay: Hepatic triglyceride content in normal rats, chronic infusion; format: in vivo; details: normal rats chronically infused for 7 days
Method: Normal rats were chronically infused with Compound 7 for 7 days. Liver triglycerides were analyzed following lipid extraction by the Bligh Dyer method (Bligh E G and Dyer W J, A rapid method of total lipid extraction and purification. Can J Med. Sci. 1959 (August); 37(8):911-7, incorporated herein by reference). Total triglycerides were analyzed in the liver extracts by an enzymatic assay (Thermo Electron Corporation). Total lipid was normalized to initial liver weight and triglyceride content was normalized to liver weight. […] There was a 4% reduction in liver triglycerides for this group and the results were not statistically significant.

plasma cholesterol = assay: Cholesterol lowering in hypercholesterolemic rats; format: in vivo; details: Rattus norvegicus, po; delivered p.o. (0.5 mg/kg/d); percentage change from pre-dose cholesterol; read-out: % Cholesterol Lowering
[6] = Whole animal resting oxygen consumption; format: in vivo, Sprague Dawley rats
Method: Thermogenesis is a measurement of energy consumption. Compounds that increase thermogenesis are likely to increase caloric expenditure and thereby cause body weight loss and its associated benefits to metabolic status (e.g., insulin sensitivity). Thermogenesis is assessed in subcellular fractions of various tissues, isolated cells, whole tissues, or in whole animals using changes in oxygen consumption as the endpoint. Oxygen is used up when calories are burned by various metabolic processes. Methods: Animals are dosed once or several times a day via a parenteral or oral route for a treatment period ranging from 1 day to several weeks. Oxygen consumption is measured following a single or multiple days of treatment. In one assay, whole animal oxygen consumption is measured using an indirect calorimeter (Oxymax, Columbus Instruments, Columbus, Ohio). Animals are removed from their cages and placed in the chambers. The resting oxygen consumption is measured in animals during periods of inactivity as measured by activity monitors. The oxygen consumption is calculated based on the flow through the chamber and the difference in oxygen partial pressures at the inflow and outlet ports. Carbon dioxide (CO2) efflux is also measured in parallel using a CO2 electrode. […] Rats were placed in the FoxBox apparatus (Sable Systems, Las Vegas, Nev.), allowed to acclimate and the resting oxygen consumption was measured. The oxygen consumption rates were compared to pre-dose measurements taken on each individual animal. […] Thus, the compounds of the present invention are useful in increasing oxygen consumption.

[7] = Cardiovascular activity in the Sprague Dawley rat (HR, LV dP/dt, aortic pressure, heart weight); format: in vivo; details: SD rats, 7 days
From the text: Method: […] The control group (n=6) was given vehicle only. […] On the 7th day after the start of dosing, animals were anesthetized with Isofluorane and the left ventricle cannulated with a high fidelity catheter tip transducer via the right carotid artery. Left ventricular pressure, its first derivative (LVdP/dt), lead I ECG, and heart rate (HR) triggered off the ECG waveform, were digitally recorded. LV dP/dt is a well accepted measure of ionotropic state. Systolic and diastolic aortic pressures were measured by retracting the catheter into the proximal aorta.

Glucose in ZDF rats = format: in vivo
Method: The decrease was dose dependent. Blood glucose levels at those doses corresponded to 442 mg/dL and 243 mg/dL, respectively. Similar changes were also evident at two weeks, post-treatment.

[8] = rat, in vivo, 28 days
Method: Compound 18 was administered at doses up to 5 mg/kg/d. Compound cis-13-1 was administered at doses up to 50 mg/kg/d. We reasoned that the ZDF rat, as a metabolically challenged animal model, would be more sensitive to the potential adverse cardiac effects of thyromimetics than a normal, cholesterol-fed rat. At sacrifice, heart rate, and the first derivative of left ventricular pressure (LV dP/dt) were measured with a Millar catheter inserted into the left ventricle.

[9] = design: species or system rats; details: rat, in vivo
Method: The oral bioavailability (OBAV) of Compound 12-1, a bis POM prodrug of Compound 7, was estimated by comparison of the dose-normalized area under the curve (AUC) of the plasma concentration-time profile of Compound 7 following IV and PO administration of Compound 7 and Compound 12-1, respectively, to normal rats.
Method: Groups of non-fasted male SD rats were administered either 5 mg/kg of Compound 7 by IV bolus or 20 mg/kg of Compound 12-1 by oral gavage. Prior to drug administration, the rats were catheterized at the tail artery to facilitate blood collection. Plasma samples were obtained at pre-specified time points following dosing, extracted with 1.5 volumes of methanol, and then assayed by an LC-UV method using a C18 column eluted with a gradient of 20% to 45% v/v acetonitrile in a potassium phosphate buffer pH 6.2 over 15 min with UV absorbance monitoring at 280 nm. The AUC values were determined noncompartmentally from the plasma concentration-time plots by trapezoidal summation to the last measurable time point.
Plasma levels of compound were analyzed by HPLC and the AUCs for the i.v. dose of 5 mg/kg and the p.o. dose of 20 mg/kg were compared. The maximum OBAV for Compound 19-2 was 0.003%. Typically, compounds that are taken forward as an oral drug candidate have OBAV values of at least 15-20%, when tested in an animal model. This minimal requirement for OBAV in a genetically homogenous model system insures that exposure can be accurately monitored when humans are treated with the compound. Furthermore, in a genetically variable background such as humans, the variability for a compound with low OBAV in genetically homogenous model systems, can be widely variable, leading some subjects to have much higher than anticipated exposure, while other subjects have no exposure.

Cc1cc(NC(=O)C(=O)O)cc(C)c1Oc1ccc(O)c(C(C)C)c1 [CGS23425, [[4-[4-hydroxy-3-(1-methylethyl)phenoxy]-3,5-dimethylphenyl]amino]oxo acetic acid]
apoAI expression (human hepatoma cells): increased apoAI expression

Cc1cc(OCC(=O)O)cc(C)c1Cc1ccc(O)c(C(C)C)c1 [Compound 17, [3,5-dimethyl-4-(4′-hydroxy-3′-iso-propylbenzyl)phenoxy]acetic acid, reference compound]
Heart GPDH (heart mGPDH activity): 277% of control | doses that significantly decreased serum cholesterol (serum cholesterol): 0.1 to 1 mg/kg/day | Liver GPDH [1]: 426% of control | Heart AUC [2]: 27.6 nmol·h/g | Kidney AUC [2]: 1.1 nmol·h/g | Liver AUC [2]: 48.5 nmol·h/g | AUC ([2]; male, SD, rat, plasma): 2800 ng·h/mL | Cmax ([2]; male, SD, rat, plasma): 3490 ng/mL | Tmax ([2]; male, SD, rat, plasma): 20 min | CL/F ([2]; male, SD, rat, plasma, read-out: Cl(observed)/F (converted)): 56 mL/min/kg | Vd/F ([2]; male, SD, rat, plasma, read-out: Vz(observed)/F): 2.2 L/kg | AUMClast ([2]; plasma): 1.7683 μg * hr^2/mL | Tlast ([2]; plasma): 2 h | Heart Weight [3]: 134% of control | increase of systolic and diastolic blood pressure [4]: 30% | cholesterol ([4]; day 7): significant decrease in cholesterol | increase of heart rate ([4]; day 7): 40% | cholesterol ([4]; day 14): no significant decrease in cholesterol was observed | increase of LV dP/dt ([4]; end-of-life): 71% | left ventricular weight ([4]; end-of-life): increased | cardiac hypertrophy ([5]; IP once-a-day for seven days): cardiac hypertrophy was observed | Cardiac GPDH activity ([5]; IP, 1 mg/kg/day): increased

N[C@@H](Cc1ccc(Oc2cc(I)c(O)c(I)c2)c(I)c1)C(=O)O [Compound T3, 3,3′,5′-triiodothyronine, reference compound]
Heart GPDH (heart mGPDH activity): 284% of control | Liver GPDH [1]: 406% of control | Heart Weight [3]: 146% of control | reduction in liver triglycerides (liver triglycerides): 4%

Cc1cc(OC[P@@]2(=O)OCC[C@@H](c3cccc(Cl)c3)O2)cc(C)c1Cc1ccc(O)c(C(C)C)c1 [Compound cis-13-1]
change in vivo at 0.5 mg/kg/day (plasma cholesterol): -31.8% | Oxygen consumption following treatment, % of the pre-dose rate ([6]; 3 mg/kg/d orally for 14 days): 116% | Oxygen consumption following treatment, % of the pre-dose rate ([6]; 10 mg/kg/d orally for 14 days): 125% | Oxygen consumption following treatment, % of the pre-dose rate ([6]; 30 mg/kg/d orally for 14 days): 132% | HR, LV dP/dt, systolic and diastolic aortic pressures ([7]; oral gavage 1, 5, 10, 30, 50 mg/kg/day): not significantly different compared to vehicle treated animals | heart weight or heart weight/body weight ratios ([7]; oral gavage 1-50 mg/kg/day): no significant changes in heart weight | water consumption (Glucose in ZDF rats): dose-dependent decrease in the water consumption | Plasma glucose at sacrifice (Glucose in ZDF rats; 4 weeks of treatment, decreased from 618 mg/dL): 437 mg/dL | Blood glucose levels (Glucose in ZDF rats; 4 weeks of treatment, versus 442 mg/dL): 243 mg/dL | TI Improvement over Compound 18, ED15 HR ([8]; ZDF): >39 | TI Improvement over Compound 18, ED25 LV dP/dt ([8]; ZDF): >102 | calculated TI with respect to LV dP/dt [8]: > 10,000 | calculated TI with respect to heart rate [8]: > 3900 | OBAV when AUC's of Compound cis-13-1 are used [9]: 25% | OBAV when comparing the AUC's of Compound 7 [9]: 40-50%
